According to patent US7700587B2, “Haloperidol analogs” (Florida A&M University, priority 2004, dated 2010):

Experiments:
Swiss male mice = assay: Apomorphine induced climbing-stereotypy; assay type: in vivo; details: for inhibition of apomorphine induced climbing (dopamine receptor antagonist in vivo): intraperitoneal, apomorphine challenge
Male SD rats = assay: Bar test for catalepsy; assay type: in vivo; details: for statistical comparison of effects in catalepsy bar test (t-test, p<0.05): all four doses; for catalepsy (EPS) in bar test: subcutaneous, at the doses used
Experimental: Bar test for catalepsy: A modified bar test by Needham et al, supra was used. […] Catalepsy severity was assessed immediately at various time points (15, 30, 45, 60, and 90 min) post injection, by scoring how long the rat maintained both forepaws motionless on a horizontal metal bar (1.1 cm in diameter, 10 cm above the bench top in a box). A score of 1 was given for every 5 seconds (2 min. maximum) the animal remained on the bar. Mean scores from 5 animals per time point were recorded for catalepsy and plotted in FIG. 2.
Statistical analysis: The student t-test was used to compare the three compounds used in the animal behavioral tests. Results were considered significant at p<0.05.

Row | Molecule | inhibition of apomorphine induced climbing (dopamine receptor antagonist in vivo) (Swiss male mice) | statistical comparison of effects in catalepsy bar test (t-test, p<0.05) (Male SD rats) | statistical comparison of effects in catalepsy bar test (t-test, p<0.05) (Male SD rats; listed as the analog) | catalepsy (EPS) in bar test (Male SD rats; listed as 2) | catalepsy (EPS) in bar test (Male SD rats; listed as drawing 7) | statistical comparison of effects in climbing test (t-test, p<0.05) (Swiss male mice; all four doses) | inhibition of apomorphine induced climbing (dopamine receptor antagonist in vivo) (Swiss male mice; listed as 2) | inhibition of apomorphine induced climbing (dopamine receptor antagonist in vivo) (Swiss male mice; listed as drawing 7)
1 | 8-chloro-1-(4-methyl-1-piperazinyl)-5H-dibenzo[b,e]-[1,4]-diazepine [Clozapine (3), reference compound] | acting as a dopamine receptor antagonist | – | – | – | – | – | – | –
2 | O=C(CCCN1CCC(O)(c2ccc(Cl)cc2)C1)c1ccc(F)cc1 (racemic) [Analog [A] (2), 4-[3-hydroxy-3-(4′-chlorophenyl)pyrrolidinyl]-4″-fluorobutyrophenone] | – | statistically similar to clozapine's | significantly different from compound 1 but non significantly different from compound 3 | no catalepsy | much less severe EPS (manifested as catalepsy in animal models) than haloperidol | significantly different from compound 1 but non significantly different from compound 3 | could inhibit apormophine induced climbing in mice | act as antidopaminergics in vivo
3 | O=C(CCCN1CCC(O)(c2ccc(Cl)cc2)CC1)c1ccc(F)cc1 [Haloperidol (1), 4-[4-(4-chlorophenyl)-4-hydroxy-1-piperidinyl]-1-(4-fluorophenyl)-1-butanone, reference compound] | acting as a dopamine receptor antagonist | – | – | – | – | – | – | –
